Test results: patent publication US20140213446A1, “HERBICIDAL COMPOSITIONS AND METHODS USING COMBINATIONS OF 4-AMINO-3-CHLORO-6-(4-CHLORO-2-FLUORO-3-METHOXYPHENYL)PYRIDINE-2-CARBOXYLIC ACID OR A DERIVATIVE THEREOF AND AN ARYLOXYPHENOXY PROPIONATE ACCASE INHIBITOR HERBICIDE” (DOW AGROSCIENCES LLC, priority 2013, published 2014)

Experiments:
Assay in all cases: Postemergence foliar-applied herbicidal mixtures, weeds common to row crops
Format in all cases: in vivo
[1] = system: DIGSA Digitaria sanguinalis (L.) Scop. (large crabgrass); conditions: Quizalofop-P-ethyl 3.56 g ae/ha
Description: (§1) Evaluation of Postemergence Foliar-Applied Herbicidal Mixtures for Control of Weeds Common to Row Crops such as Corn and Soybeans. Seeds or nutlets of the desired test plant species were planted in a soil matrix prepared by mixing a loam or sandy loam soil (e.g., 28.6 percent silt, 18.8 percent clay, and 52.6 percent sand, with a pH of about 5.8 and an organic matter content of about 1.8 percent) and calcareous grit in an 80 to 20 ratio. The soil matrix was contained in plastic pots with a surface area of 84.6 cm^2 and a volume of 560 cubic centimeters (cm^3). When required to ensure good germination and healthy plants, a fungicide treatment and/or other chemical or physical treatment was applied. The plants were grown for 7-31 d in a greenhouse with an approximate 15 h photoperiod which was maintained at about 23-29° C. during the day and 22-28° C. during the night. Nutrients (Peters Excel® 15-5-15 5-Ca 2-Mg) and water were added on a regular basis and supplemental lighting was provided with overhead metal halide 1000-Watt lamps as necessary. The plants were employed for testing when they reached the first, second, or third true leaf stage.
(§2) Treatment requirements were calculated based upon the rates being tested, the concentration of active ingredient or acid equivalent in the formulation, and a 12 mL application volume at a rate of 187 L/ha.
(§3) Treatments consisted of the potassium (K^+) salt of 4-amino-3-chloro-6-(4-chloro-2-fluoro-3-methoxyphenyl)-pyridine-2-carboxylic acid (Cmpd 4) formulated as a soluble liquid (SL), the propargyl ester of 4-amino-3-chloro-6-(4-chloro-2-fluoro-3-methoxyphenyl)-pyridine-2-carboxylic acid (Cmpd 2) as technical grade material, or the benzyl ester of 4-amino-3-chloro-6-(4-chloro-2-fluoro-3-methoxyphenyl)-pyridine-2-carboxylic acid (Cmpd 3) as technical grade material and quizalofop-p-ethyl (Assure® II) alone and in combination. Forms of compound of formula (I) and quizalofop-P-ethyl were applied on an acid equivalent basis.
(§4) For treatments comprised of formulated compounds, measured amounts of compounds were placed individually in 25 mL glass vials and diluted in a volume of 1.5% (v/v) Agri-Dex® crop oil concentrated to obtain 6× stock solutions. […] Application solutions were prepared by adding an appropriate amount of each stock solution (typically 2 mL) and diluted to the appropriate final concentrations with the addition of an appropriate amount of an aqueous mixture of 1.5% (v/v) crop oil concentrate and water so that the final spray solutions contained 1.25+/−0.05% (v/v) crop oil concentrate.
(§5) For treatments comprised of formulated and technical compounds, weighed amounts of the technical materials were placed individually in 25 mL glass vials and dissolved in a volume of 97:3 v/v acetone/DMSO to obtain 6× stock solutions, and measured amounts of the formulated compounds were placed individually in 25 mL glass vials and diluted in a volume of 1.5% (v/v) crop oil concentrate or water to obtain 6× stock solutions. […] Application solutions were prepared by adding an appropriate amount of each stock solution (e.g., 2 mL) and diluted to the appropriate final concentrations with the addition of an appropriate amount of an aqueous mixture of 1.5% (v/v) crop oil concentrate and water so that the final spray solutions contained 1.25% (v/v) crop oil concentrate. When required, additional water and/or 97:3 v/v acetone/DMSO can be added to individual application solutions so that the final acetone and DMSO concentrations of the application solutions being compared are 16.2% and 0.5%, respectively.
(§6) All stock solutions and applications solutions were visually inspected for compound compatibility prior to application. Compound requirements are based upon a 12 mL application volume at a rate of 187 liters per hectare (L/ha). […]

[2] = system: LOLMU Lolium multiflorum Lam. (Italian ryegrass); conditions: Quizalofop-P-ethyl 3.56 g ae/ha
Description: as §1, §2, §3, §4, §5, §6

[3] = system: OEOBI Oenothera biennis (evening primrose)
Description: as §1, §2, §3, §4, §5, §6

[4] = system: AVEFA Avena fatua L. (wild oat)
Description: as §1, §2, §3, §4, §5, §6

[5] = system: SORHA Sorghum halepense (L.) Pers. (Johnsongrass); conditions: Quizalofop-P-ethyl 7.125 g ae/ha
Description: as §1, §2, §3, §4, §5, §6

[6] = Quizalofop-P-ethyl 7.125 g ae/ha
[7] = Quizalofop-P-ethyl 14.25 g ae/ha

## CCOC(=O)[C@@H](C)Oc1ccc(Oc2cnc3cc(Cl)ccc3n2)cc1 [Quizalofop-P-ethyl, quizalofop-P-ethyl]
[1]
  Percent (%) injury rated visually 14 DAA Obs: 20%
[2]
  Percent (%) injury rated visually 14 DAA Obs: 0%
[3]; [6]
  Percent (%) injury rated visually 14 DAA Obs: 0%
[3]; [7]
  Percent (%) injury rated visually 14 DAA Obs: 0%
[3]; Quizalofop-P-ethyl 28.5 g ae/ha
  Percent (%) injury rated visually 14 DAA Obs: 0%
[4]; Quizalofop-P-ethyl 3.56 g ae/ha
  Percent (%) injury rated visually 14 DAA Obs: 15%
[4]; [6]
  Percent (%) injury rated visually 14 DAA Obs: 15%
[4]; [7]
  Percent (%) injury rated visually 14 DAA Obs: 40%
[5]
  Percent (%) injury rated visually 14 DAA Obs: 50%
